Eight compounds from ChEMBL document CHEMBL3612051, “Carbonic anhydrase inhibitors: Design, synthesis and structural characterization of new heteroaryl-N-carbonylbenzenesulfonamides targeting druggable human carbonic anhydrase isoforms” (Eur J Med Chem, 2015) can be followed below.

Molecules are shown by their SMILES. Where only a bound is given, the exact number is not on record here.

The Ki is a dissociation constant, usually derived from enzyme kinetics or from competition with a known ligand. The term IC50 denotes the concentration that inhibits the measured activity by half.

One test concerns the target Carbonic anhydrase 9 (Homo sapiens, UniProt Q16790). Kind of test: Inhibition of human recombinant full length carbonic anhydrase 9 preincubated for 15 mins by stopped-flow CO2 hydration assay.
In a further test the target is Carbonic anhydrase 7 (Homo sapiens, UniProt P43166). Kind of test: Inhibition of human recombinant full length carbonic anhydrase 7 preincubated for 15 mins by stopped-flow CO2 hydration assay.
Chain of Carbonic anhydrase 7 (P43166 whole entry): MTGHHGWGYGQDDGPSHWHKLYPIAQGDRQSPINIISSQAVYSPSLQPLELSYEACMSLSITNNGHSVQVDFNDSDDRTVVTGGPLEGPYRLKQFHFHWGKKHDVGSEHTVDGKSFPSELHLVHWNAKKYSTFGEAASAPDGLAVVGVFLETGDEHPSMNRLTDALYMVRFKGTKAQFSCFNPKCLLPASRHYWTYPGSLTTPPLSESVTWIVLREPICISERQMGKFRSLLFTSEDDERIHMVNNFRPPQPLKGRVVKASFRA

For the compound `COc1cc2c(cc1OC)CN(C(=O)c1ccc(S(N)(=O)=O)cc1)CC2`, at Carbonic anhydrase 9, the Ki was 6.1 nM.

For `NS(=O)(=O)c1ccc(C(=O)N2CCc3cc(O)c(O)cc3C2)cc1`, the Ki on Carbonic anhydrase 9 was found to be 5.01 nM.

With `COc1ccc2c(c1)CCN(C(=O)c1ccc(S(N)(=O)=O)cc1)C2`, the Ki on Carbonic anhydrase 9 was 27 nM.

With `NS(=O)(=O)c1ccc(C(=O)N2CCc3cc(O)ccc3C2)cc1`, the Ki on Carbonic anhydrase 9 was 28 nM.

On to `NS(=O)(=O)c1ccc(C(=O)N2CCc3ccccc3C2)cc1`, for which the Ki at Carbonic anhydrase 9 stood at 7.5 nM.

For the compound `COc1ccc2c(c1)CCCN2C(=O)c1ccc(S(N)(=O)=O)cc1`, on Carbonic anhydrase 9, the Ki worked out at 6.5 nM. In addition, the IC50 at Carbonic anhydrase 7 is over 50000 nM.

As for `NS(=O)(=O)c1ccc(C(=O)N2CCCc3cc(O)ccc32)cc1`, at Carbonic anhydrase 9, the Ki is 42 nM.

For `NS(=O)(=O)c1ccc(C(=O)N2CCCc3ccccc32)cc1`, on Carbonic anhydrase 9, the Ki turned out to be 9.4 nM.
